Tested on: Saccharomyces cerevisiae ABC16-Green Monster
Test: growth inhibition at single dose (up to 150 µM), below the 70% cut-off for dose-response; higher = more potent
Settings: 18 h; 30 °C; YPD
In short: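 The entry is percent growth inhibition of drug-sensitive S. cerevisiae ABC16-Green Monster cells. After overnight growth in YPD at 30 °C, cells were diluted to OD600 0.1–0.2 and exposed to each library compound at 150 µM in 200 µl per well, in biological duplicates with untreated cultures beside them, and OD600 was read at 0 h and after 18 h at 30 °C. Any compound under 70% in both replicates was not carried to dose-response.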

| SMILES | growth inhibition at single dose |
| --- | --- |
| CO[C@@H]1CN(c2ccc(C#CC3(O)CN4CCC3CC4)c(Cc3ccccc3)n2)C[C@H]1O (some centres not stated) | < 70% |
| C=C(C)COc1ccc(-c2n[nH]c(C)c2-c2ccc(OC)c(OC)c2)c(O)c1 | < 70% |
| Cc1cc(C)n2nc(C(=O)Nc3cc(C(F)(F)F)ccc3N3CCOCC3)nc2n1 | < 70% |
| Cc1cc(C)n(-c2nc(-c3ccccc3)cc(N3CCOCC3)n2)n1 | < 70% |
| Cc1nc(NCc2ccc(N3CCN(C)CC3)nc2)c2c(-c3ccccc3)csc2n1 | < 70% |
| COc1cccc(NC(=O)c2c(NC(=O)c3cccnc3)sc3c2CCC3)c1 | < 70% |
| O=C1c2ccc3c4c(ccc(c24)C(=O)N1CCCCO)C(=O)N(CCCCO)C3=O | < 70% |
| COc1ccc(OC)c(NCc2ccc3nc(N)nc(N)c3c2Cl)c1 | < 70% |
| CCc1ccc(-n2nnnc2-c2cnc(N)nc2-c2ccccc2)cc1 | < 70% |
| CN(Cc1ccc(C(N)=O)cc1)c1ncnc2ccccc12 | < 70% |
| CC(=O)Oc1ccccc1C(=O)Nc1ncc([N+](=O)[O-])s1 | < 70% |
| COc1ccc(-c2c(C)nn3c(N)c(C#N)cnc23)cc1OC | < 70% |
| CC1CCN(Cc2c(O)ccc3cc(-c4nc5ccccc5s4)c(=O)oc23)CC1 | < 70% |
| CS(=O)(=O)Cc1nc2ccccc2oc1=O | < 70% |
| O=C(NCc1ccccc1)/C(=C/c1ccc(OCc2ccccc2)cc1)c1nc2ccccc2[nH]1 | < 70% |
| C=CCn1c(C)cc(C(=O)CSc2nc3ccccc3s2)c1C | < 70% |
| COc1ccc(C2Sc3ccccc3N=C3C2=C(O)c2ccccc23)cc1 (configuration not stated) | < 70% |
| COC(=O)c1c(C)[nH]c(C(=O)Nc2ccc(C)cn2)c1C | < 70% |
| OC1CCCCC1C1(NC(=S)Nc2ccccc2)CCCCC1 (configuration not stated) | < 70% |
| Nc1nccc2ccc(Oc3ccncc3)cc12 | < 70% |
| CCOc1ccc(-c2nc(NC(=O)c3cccc(S(C)(=O)=O)c3)sc2C)cc1 | < 70% |

| SMILES | growth inhibition at single dose |
| --- | --- |
| COc1ccccc1CNC(=O)CCn1c(=O)[nH]c2ccccc2c1=O | < 70% |
| CCCc1cc(NCCN(C)C)n2ncc(-c3ccccc3)c2n1 | < 70% |
| O=C(Nc1nc(CN2CCOCC2)cs1)c1ccc(-c2ccccc2)cc1 | < 70% |
| COc1ccc(NC2=NC(=O)/C(=C/c3cc(C)n(-c4cccc(Cl)c4Cl)c3C)S2)cc1 | < 70% |
| Clc1ccc(CN2CCN(C3=NCCN3)CC2)cc1Cl | < 70% |
| O=C(c1ccccc1F)N(Cc1ccc(Cl)cc1)c1ccccn1 | < 70% |
| Oc1ccccc1CNCC12CC3CC(CC(C3)C1)C2 | < 70% |
| CC(C)(C)CC(C)(C)NCC(O)COc1ccc(Cl)cc1Cl (configuration not stated) | < 70% |
| CNc1snc(C)c1C(=O)OCCOc1ccccc1C(C)=O | < 70% |
| CCCC(c1nnnn1C1CCCCC1)N1CCN(C(=O)c2ccco2)CC1 (configuration not stated) | < 70% |
| COc1cccc(-c2nc3c(N4CCCC4)cccc3n2CC2CCCN2)n1 (configuration not stated) | < 70% |
| Cc1cccc2c(=O)n(CC(=O)NCc3ccc(C(=O)N4CCCCC4)cc3)cnc12 | < 70% |
| O=C(Nc1ncccc1O)c1ccc(-n2ccnc2)cc1 | < 70% |
| O=C(Nc1ccc([N+](=O)[O-])cc1)Nc1cccnc1Cl | < 70% |
| COc1ccc(C(=O)NC(c2ccc(Cl)cc2Cl)c2cc(Cl)c3cccnc3c2O)cc1 (configuration not stated) | < 70% |
| CCCn1c(=N)c(C(=O)NC2CCCCC2)cc2c(=O)n3cccc(C)c3nc21 | < 70% |
| c1ccc(Oc2ccc(-c3cncc(-c4ccc5[nH]ccc5c4)n3)cc2)cc1 | < 70% |
| CC(Oc1ccc(NC(=O)c2cccs2)cc1)C(=O)c1ccc(Cl)cc1 (configuration not stated) | < 70% |
| Cn1c(N)c(C(=O)COC(=O)C2(c3ccc(Cl)cc3)CCCC2)c(=O)n(C)c1=O | < 70% |
| O=C(c1cnn(C(=O)c2nn(-c3ccc(Cl)cc3)cc2O)c1)c1ccccc1O | < 70% |
| Cc1nc(-c2cccc(NCc3ccccc3)c2)[nH]c1C | < 70% |
